{"source": "paper PMC4965148", "about": "(PLoS ONE, 2016)", "key": {"[1]": {"target": "T1, HEK293/rat α7 nAChR cells (Rattus norvegicus, UniProt Q05941)", "T1 construct": "expressed in transfected cells", "T1 sequence (Q05941 23-502)": "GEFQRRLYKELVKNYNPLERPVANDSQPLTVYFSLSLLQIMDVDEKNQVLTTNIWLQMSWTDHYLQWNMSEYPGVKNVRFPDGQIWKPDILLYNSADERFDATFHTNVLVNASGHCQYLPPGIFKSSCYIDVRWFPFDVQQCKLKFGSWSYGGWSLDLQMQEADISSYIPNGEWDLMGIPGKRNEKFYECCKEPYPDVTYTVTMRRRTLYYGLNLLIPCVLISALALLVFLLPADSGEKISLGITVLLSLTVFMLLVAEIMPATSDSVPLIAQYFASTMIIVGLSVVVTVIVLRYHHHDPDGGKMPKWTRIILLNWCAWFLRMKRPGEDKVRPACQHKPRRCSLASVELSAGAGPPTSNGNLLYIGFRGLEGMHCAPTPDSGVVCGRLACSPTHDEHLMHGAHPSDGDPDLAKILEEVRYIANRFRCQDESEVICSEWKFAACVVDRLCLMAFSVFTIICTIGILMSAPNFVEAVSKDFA", "assay": "Whole cell voltage clamp electrophysiology", "type": "cell-based", "settings": "for Net Charge (Current Area) normalized to 300 µM ACh / Peak Current normalized to 3 mM ACh: individual cells; for mean ± SEM peak current Ymax: n = 5"}, "HEK293/Human α7 nAChR": {"target": "HEK293/Human α7 nAChR (Homo sapiens, UniProt P36544)", "sequence (P36544 23-502)": "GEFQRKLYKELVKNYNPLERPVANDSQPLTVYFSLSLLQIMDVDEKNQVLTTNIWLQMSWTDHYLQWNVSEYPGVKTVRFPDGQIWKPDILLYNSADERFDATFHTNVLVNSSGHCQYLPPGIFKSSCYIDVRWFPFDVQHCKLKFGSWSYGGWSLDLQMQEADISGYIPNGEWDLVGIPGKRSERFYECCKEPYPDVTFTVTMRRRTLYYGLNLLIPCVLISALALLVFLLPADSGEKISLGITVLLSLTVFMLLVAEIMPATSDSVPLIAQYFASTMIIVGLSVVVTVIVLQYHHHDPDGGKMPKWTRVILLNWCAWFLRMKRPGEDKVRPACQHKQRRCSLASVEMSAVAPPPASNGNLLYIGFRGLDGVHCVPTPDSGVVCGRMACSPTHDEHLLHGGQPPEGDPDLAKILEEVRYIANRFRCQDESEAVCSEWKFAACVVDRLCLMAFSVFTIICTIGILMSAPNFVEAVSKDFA", "assay": "[3H]-A-585539 filtration binding", "parameters": "expressed in transfected cells"}}, "note": "“And” between values parts separate entries of the source, which are not always exact repeats. Identical values can stand only once. Like-named read-outs stand apart in the source and are kept apart here."}
{"compound": "c1cn(-c2cc(NC3=NC[C@@]4(CN5CCC4CC5)O3)ncn2)cn1", "note": "[BMS-933043, (2R)-N-(6-(1H-imidazol-1-yl)-4-pyrimidinyl)-4'H-spiro[4-azabicyclo[2.2.2]octane-2,5'-[1,3]oxazol]-2'-amine]", "values": [{"measurement": "EC50", "setting": "[1]", "result": "140 ± 30", "unit": "nM"}, {"measurement": "Net Charge (Current Area) normalized to 300 µM ACh", "setting": "[1]; 0.1 µM", "result": "0.00864 and -0.014 and 0.05917 and 0.0877"}, {"measurement": "Peak Current normalized to 3 mM ACh", "setting": "[1]; 0.1 µM", "result": "0.01158 and 0.01083 and 0.01236 and 0.0131"}, {"measurement": "Net Charge (Current Area) normalized to 300 µM ACh", "setting": "[1]; 0.3 µM", "result": "0.4138 and 0.2853 and 0.4739 and 0.5256"}, {"measurement": "Peak Current normalized to 3 mM ACh", "setting": "[1]; 0.3 µM", "result": "0.04784 and 0.02829 and 0.03284 and 0.03669"}, {"measurement": "Net Charge (Current Area) normalized to 300 µM ACh", "setting": "[1]; 1 µM", "result": "0.7172 and 0.3555 and 0.6626 and 0.6549"}, {"measurement": "Peak Current normalized to 3 mM ACh", "setting": "[1]; 1 µM", "result": "0.07111 and 0.07356 and 0.0749 and 0.08082"}, {"measurement": "Net Charge (Current Area) normalized to 300 µM ACh", "setting": "[1]; 3 µM", "result": "0.7919 and 0.4794 and 0.6677 and 0.6569"}, {"measurement": "Peak Current normalized to 3 mM ACh", "setting": "[1]; 3 µM", "result": "0.1558 and 0.1519 and 0.1651 and 0.1365"}, {"measurement": "Net Charge (Current Area) normalized to 300 µM ACh", "setting": "[1]; 10 µM", "result": "0.8266 and 0.4637 and 0.7322 and 0.6673"}, {"measurement": "Peak Current normalized to 3 mM ACh", "setting": "[1]; 10 µM", "result": "0.2731 and 0.2904 and 0.2952 and 0.2153"}, {"measurement": "mean ± SEM peak current Ymax", "setting": "[1]; BMS-933043 10 μM alone", "result": "0.26 ± 0.03"}, {"measurement": "mean ± SEM peak current Ymax", "setting": "[1]; BMS-933043 10 μM in the presence of 10 nM MLA", "result": "0.02 ± 0.003"}, {"measurement": "Mean ± SEM Net Charge Ymax", "setting": "[1]; Rat, normalized to 300 μM ACh", "result": "0.67 ± 0.07"}, {"measurement": "Mean ± SEM Peak Current Ymaxobs @ 10 μM", "setting": "[1]; Rat, normalized to 3 mM ACh", "result": "0.27 ± 0.02"}, {"measurement": "Ki", "setting": "HEK293/Human α7 nAChR; HEK293/Human α7 nAChR Mean ± SD Ki", "result": 8, "unit": "nM"}, {"measurement": "Ki", "setting": "HEK293/Human α7 nAChR; HEK293/human α7 nAChR Ki (individual)", "result": "10.5 nM and 5.7 nM"}, {"measurement": "Ki", "setting": "HEK293/Human α7 nAChR; read-out: HEK293/Human α7 nAChR Mean ± SD Ki", "result": 8.1, "unit": "nM"}, {"measurement": "Ki", "setting": "HEK293/Human α7 nAChR; read-out: HEK293/human α7 nAChR Ki (individual)", "result": 8.1, "unit": "nM"}]}
